Results on 25 compounds are retold here after patent US20250270222A1, “AP2 ASSOCIATED KINASE 1 INHIBITORS AND USES THEREOF” (Satellos Bioscience Inc., priority 2023, published 2025).

Assay [1] concerns the target GAK (amino acids Q25-N335) (Homo sapiens (Human), UniProt O14976). The assay is described as follows: GAK pSENs assay. In kind it is biochemical. As to the method:
(§1) The recombinant proteins were independently expressed in Esherichia coli BL21(DE3) cells cultured in Luria-Bertani (LB) medium until OD600 reached 0.6-0.8, then cooled to 15° C., and supplemented with 0.5 mM isopropyl 1-thio-D-galactopyranoside (IPTG) induce protein expression 16 h. Cells were harvested and resuspended in lysis buffer (50 mM HEPES pH 7.5, 500 mM NaCl, 5 mM imidazole, 5% glycerol, 0.5 mM Tris (2-carboxyethyl) phosphine (TCEP), cOmplete Protease Inhibitor Tablet (Roche)) and lysed by microfluidics high pressure homogenizer (UH-06, Union-Biotech). Proteins were purified using Ni-Affinity chromatography (His FF column, Bestchrom) and eluted stepwise in binding buffer with 20-300 mM imidazole. Removal of the hexahistidine tag was performed at 4° C. overnight using recombinant TEV protease and reacted with BirA to obtain the corresponding biotinylated-AAK1. BIKE or GAK proteins. Further separated in the reverse Strep column (Strep-Tactin® XT, IBA). The Biotin elution sample was collected containing untagged biotinylated protein was then purified by Ion-exchange chromatography (Mono Q 10/100 GL, Cytiva) and Size-exclusion chromatography (HiLoad 16/600 Superdex 200 pg, Cytiva). The pure protein was stored in a storage buffer 50 mM HEPES (pH 7.5), 300 mM NaCl, 5% glycerol at −80° C. Protein were characterized by SDS-PAGE. LC-MS and aSEC.
This example describes one illustrative method for determining the IC50 of the compounds of the present invention against GAK (amino acids Q25-N335).

For assay [2], the target named is AAK1 (amino acids T27-A365) (Homo sapiens (Human), UniProt Q2M2I8). The experiment in a line: AAK1 pSENs assay. In kind it is biochemical. The settings on record: ratio of AAK1 pSENs activity to GAK pSENs activity. On the procedure: as §1
Sequence of AAK1 (amino acids T27-A365) (Q2M2I8 27-365): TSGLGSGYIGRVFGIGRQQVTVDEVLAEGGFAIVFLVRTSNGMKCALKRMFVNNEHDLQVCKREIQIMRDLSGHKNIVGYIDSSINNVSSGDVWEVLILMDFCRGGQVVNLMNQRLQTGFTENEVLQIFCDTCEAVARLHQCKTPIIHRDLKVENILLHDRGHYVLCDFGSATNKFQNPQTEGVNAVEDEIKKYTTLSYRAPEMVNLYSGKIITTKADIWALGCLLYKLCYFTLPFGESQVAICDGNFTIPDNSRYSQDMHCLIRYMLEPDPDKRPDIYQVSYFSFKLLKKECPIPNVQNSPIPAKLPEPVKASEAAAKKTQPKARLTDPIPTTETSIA
This example describes one illustrative method for determining the IC50 of the compounds of the present invention against AAK1 (amino acids T27-A365). AAK1 protein was dissolved at 20 nM in 1× enzyme solution (50 mM HEPES pH7.5, 10 mM MgCl2, 1 mM DTT, 1% glycerol, 0.5 mM EGTA, 0.01% Briji35, 0.02% BSA) and 12.5 ul was incubated with 250 nl DMSO or 250 nl compound in DMSO at 25° C. for 15 min. The reaction was started by addition of 12.5 ul of 30 uM AQT0759 (Assayquant, CSKS-AQT0759B) and 70 uM ATP which were diluted in 1× substrate dilution buffer (50 mM HEPES pH7.5, 10 mM MgCl2, 1 mM DTT, 1% glycerol, 0.5 mM EGTA, 0.01% Briji35).

Sequence of GAK (amino acids Q25-N335) (O14976 25-335): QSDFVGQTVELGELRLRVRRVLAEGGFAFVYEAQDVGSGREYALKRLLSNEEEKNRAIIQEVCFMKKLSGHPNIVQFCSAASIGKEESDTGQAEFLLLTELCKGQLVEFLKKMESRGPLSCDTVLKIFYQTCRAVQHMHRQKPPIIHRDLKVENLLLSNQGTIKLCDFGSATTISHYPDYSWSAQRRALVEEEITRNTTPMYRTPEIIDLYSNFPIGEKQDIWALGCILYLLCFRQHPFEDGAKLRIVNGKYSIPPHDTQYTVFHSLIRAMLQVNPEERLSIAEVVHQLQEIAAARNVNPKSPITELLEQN

Consider `CC(C)Oc1ncccc1-c1cnn2ccc(N3CCN(C(=O)O[C@@H]4CNC(=O)C4)CC3)nc12` [Compound I-26, [(3S)-5-Oxopyrrolidin-3-yl]-4-[3-(2-isopropoxy-3-pyridyl)pyrazolo[1,5-a]pyrimidin-5-yl]piperazine-1-carboxylate], for which the IC50 – broadly, the concentration needed to halve the response being measured – in assay [1] was > 1.5 µM. In assay [2], the “AAK1:GAK pSENs Selectivity” value was “A (A: ≤0.015)”.

For `CN(CCNc1ccn2ncc(-c3cccnc3OC3CC3)c2n1)C(=O)O[C@@H]1CNC(=O)C1` [Compound I-60], the IC50 in assay [1] is > 1.5 µM. Moreover, the “AAK1:GAK pSENs Selectivity” value in assay [2] was “C (C: 0.076-0.15)”.

For the compound `CC(C)(C)OC(=O)N1CCC(N2C[C@@H](OC(=O)N3CCN(c4ccn5ncc(-c6cccnc6OC6CC6)c5n4)CC3)CC2=O)CC1` [Compound I-30, [(3S)-1-(1-tert-Butoxycarbonyl-4-piperidyl)-5-oxo-pyrrolidin-3-yl]4-[3-[2-(cyclopropoxy)-3-pyridyl]pyrazolo[1,5-a]pyrimidin-5-yl]piperazine-1-carboxylate], the IC50 in assay [1] is > 1.5 µM. In assay [2], the “AAK1:GAK pSENs Selectivity” value was “A (A: ≤0.015)”.

For `CNCCN1C[C@@H](OC(=O)N2CCN(c3ccn4ncc(-c5cccnc5OC5CC5)c4n3)CC2)CC1=O` [Compound I-36, (S)-1-(2-(methylamino)ethyl)-5-(oxopyrrolidin-3-yl)-4-(3-(2-cyclopropoxypyridin-3-yl)pyrazolo[1,5-a]pyrimidin-5-yl)piperazine-1-carboxylate], the concentration for half-maximal inhibition (IC50) in assay [1] was > 1.5 µM. Besides, the “AAK1:GAK pSENs Selectivity” value in assay [2] is listed as “A (A: ≤0.015)”.

Regarding `CN1C[C@@H](OC(=O)N2CCN(c3nc4c(-c5cccnc5OC5CC5)cnn4cc3F)CC2)CC1=O` [Compound I-109, [(3S)-1-methyl-5-oxo-pyrrolidin-3-yl]4-[3-[2-(cyclopropoxy)-3-pyridyl]-6-fluoro-pyrazolo[1,5-a]pyrimidin-5-yl]piperazine-1-carboxylate], the half-inhibitory concentration (IC50) in assay [1] is > 1.5 µM. Moreover, in assay [2], the “AAK1:GAK pSENs Selectivity” value is recorded as “A (A: ≤0.015)”.

Take `COC(=O)N1CC(Oc2ncccc2-c2cnn3ccc(N4CCN(C(=O)O[C@@H]5CC(=O)N(C)C5)CC4)nc23)C1` [Compound I-83, [(3R)-1-methyl-5-oxo-pyrrolidin-3-yl]4-[3-[2-(1-methoxycarbonylazetidin-3-yl)oxy-3-pyridyl]pyrazolo[1,5-a]pyrimidin-5-yl]piperazine-1-carboxylate]: the IC50 in assay [1] is > 1.5 µM. In addition, in assay [2], the “AAK1:GAK pSENs Selectivity” value is recorded as “A (A: ≤0.015)”.

Turning to `CN1C[C@@H](OC(=O)N2CCN(c3ccn4ncc(-c5cc(F)cnc5OC5CC5)c4n3)CC2)CC1=O` [Compound I-86], the IC50 in assay [1] is > 1.5 µM. In addition, the “AAK1:GAK pSENs Selectivity” value in assay [2] is “A (A: ≤0.015)”.

In the case of `CC1(OC(=O)N2CCN(c3ccn4ncc(-c5cccnc5OC5CC5)c4n3)CC2)COC1` [Compound I-2, (3-methyloxetan-3-yl)-4-[3-[2-(cyclopropoxy)-3-pyridyl]pyrazolo[1,5-a]pyrimidin-5-yl]piperazine-1-carboxylate], in assay [1], the IC50 is > 1.5 µM. Also, the “AAK1:GAK pSENs Selectivity” value in assay [2] is listed as “A (A: ≤0.015)”.

For the compound `CC(=O)N1CC(Oc2ncccc2-c2cnn3ccc(NCCN(C)C(=O)OC(C)(C)C)nc23)C1` [Compound I-63, Tert-butyl (2-((3-(2-((1-acetylazetidin-3-yl)oxy)pyridin-3-yl)pyrazolo[1,5-a]pyrimidin-5-yl)amino)ethyl)(methyl)carbamate], the IC50 in assay [1] was > 1.5 µM. Moreover, the “AAK1:GAK pSENs Selectivity” value in assay [2] was “A (A: ≤0.015)”.

For the compound `CC(C)Oc1ncccc1-c1cnn2ccc(N3CCN(C(=O)OC4(C)CCNC4)CC3)nc12` (stereo not shown) [Compound I-21-5, (3-Methylpyrrolidin-3-yl)-4-[3-(2-isopropoxy-3-pyridyl)pyrazolo[1,5-a]pyrimidin-5-yl]piperazine-1-carboxylate], the “AAK1:GAK pSENs Selectivity” value in assay [2] is reported as “B (B: 0.016-0.075)”.

`C[C@@]1(OC(=O)N2CCN(c3ccn4ncc(-c5cccnc5OC5CC5)c4n3)CC2)CCN(CC(N)=O)C1` [Compound I-51, (R)-1-(2-amino-2-oxoethyl)-3-(methylpyrrolidin-3-yl)-4-(3-(2-cyclopropoxypyridin-3-yl)pyrazolo[1,5-a]pyrimidin-5-yl)piperazine-1-carboxylate]: the “AAK1:GAK pSENs Selectivity” value in assay [2] was “A (A: ≤0.015)”.

On to `C#C[C@@]1(OC(=O)N2CCN(c3ccn4ncc(-c5cccnc5OC5CC5)c4n3)CC2)CCNC1` [Compound I-16, [(3S)-3-Ethynylpyrrolidin-3-yl]-4-[3-[2-(cyclopropoxy)-3-pyridyl]pyrazolo[1,5-a]pyrimidin-5-yl]piperazine-1-carboxylate], for which, in assay [2], the “AAK1:GAK pSENs Selectivity” value is on record as “B (B: 0.016-0.075)”.

`Brc1cnn2ccc(N3CCNCC3)nc12` [Compound I-103, 3-bromo-5-piperazin-1-yl-pyrazolo[1,5-a]pyrimidine]: the “AAK1:GAK pSENs Selectivity” value in assay [2] is given as “E (E: >1.00)”.

For the compound `[2H]C1([2H])N(C(=O)O[C@H]2CC(=O)N(C)C2)C([2H])([2H])C([2H])([2H])N(c2ccn3ncc(-c4cccnc4OC4CC4)c3n2)C1([2H])[2H]` [Compound I-73, [(3S)-1-methyl-5-oxo-pyrrolidin-3-yl]-4-[3-[2-(cyclopropoxy)-3-pyridyl]pyrazolo[1,5-a]pyrimidin-5-yl]-2,2,3,3,5,5,6,6-octadeuterio-piperazine-1-carboxylate], the half-maximal inhibitory concentration (IC50) in assay [1] was > 1.5 µM.

In the case of `CN(CCNc1ccn2ncc(-c3cccnc3OC3CC3)c2n1)C(=O)O[C@H]1CO[C@H]2OCC[C@H]21` [Compound I-71, (3R,3aS,6aR)-hexahydrofuro[2,3-b]furan-3-yl (2-((3-(2-cyclopropoxypyridin-3-yl)pyrazolo[1,5-a]pyrimidin-5-yl)amino)ethyl)(methyl)carbamate], the “AAK1:GAK pSENs Selectivity” value in assay [2] was “B (B: 0.016-0.075)”.

For `CC(C)(C)OC(=O)N1CCN(c2ccn3ncc(-c4cccnc4O)c3n2)CC1` [Compound I-102, tert-butyl 4-[3-(2-hydroxy-3-pyridyl)pyrazolo[1,5-a]pyrimidin-5-yl]piperazine-1-carboxylate], the “AAK1:GAK pSENs Selectivity” value in assay [2] is reported as “A (A: ≤0.015)”.

Consider `CN1C[C@@H](OC(=O)N2CCN(c3ccn4ncc(-c5cc(OC(F)(F)F)cnc5OC5CC5)c4n3)CC2)CC1=O` [Compound I-88], for which the “AAK1:GAK pSENs Selectivity” value in assay [2] is given as “B (B: 0.016-0.075)”.

Consider `c1cc2nc(N3CCNCC3)ccn2n1` [Compound I-105, 5-piperazin-1-ylpyrazolo[1,5-a]pyrimidine], for which, in assay [2], the “AAK1:GAK pSENs Selectivity” value is “E (E: >1.00)”.

On to `C#CC1(OC(=O)N2CCN(c3ccn4ncc(-c5cccnc5OC)c4n3)CC2)CCNC1` (stereo not shown) [Compound I-9, (3-Ethynylpyrrolidin-3-yl) 4-[3-(2-methoxy-3-pyridyl)pyrazolo[1,5-a]pyrimidin-5-yl]piperazine-1-carboxylate], for which, in assay [2], the “AAK1:GAK pSENs Selectivity” value is on record as “B (B: 0.016-0.075)”.

For the compound `O=C1C[C@H](OC(=O)N2CCN(c3ccn4ncc(-c5cccnc5NC5CC5)c4n3)CC2)CN1` [Compound I-45, [(3S)-5-Oxopyrrolidin-3-yl]4-[3-[2-(cyclopropylamino)-3-pyridyl]pyrazolo[1,5-a]pyrimidin-5-yl]piperazine-1-carboxylate], in assay [2], the “AAK1:GAK pSENs Selectivity” value is recorded as “E (E: >1.00)”.

`Oc1ncccc1-c1cnn2ccc(N3CCNCC3)nc12` [Compound I-106, 3-(5-piperazin-1-ylpyrazolo[1,5-a]pyrimidin-3-yl)pyridin-2-ol]: in assay [2], the “AAK1:GAK pSENs Selectivity” value is “C (C: 0.076-0.15)”.

Consider `CC(C)(C)OC(=O)NCCNc1ccc2ncc(-c3cccnc3OC3CC3)n2n1` [Compound I-129, tert-butyl N-[2-[[3-[2-(cyclopropoxy)-3-pyridyl]imidazo[1,2-b]pyridazin-6-yl]amino]ethyl]carbamate], for which the “AAK1:GAK pSENs Selectivity” value in assay [2] was “C (C: 0.076-0.15)”.

As to `C[C@@]1(OC(=O)N2CCN(c3ccn4ncc(-c5cccnc5OC5CC5)c4n3)CC2)CCNC1` [Compound I-14, [(3R)-3-Methylpyrrolidin-3-yl]-4-[3-[2-(cyclopropoxy)-3-pyridyl]pyrazolo[1,5-a]pyrimidin-5-yl]piperazine-1-carboxylate], the “AAK1:GAK pSENs Selectivity” value in assay [2] was “A (A: ≤0.015)”.

For the compound `CC(C)(C)OC(=O)NCCNc1nc2c(-c3cccnc3OC3CC3)cnn2cc1F` [Compound I-124, tert-butyl N-[2-[[3-[2-(cyclopropoxy)-3-pyridyl]-6-fluoro-pyrazolo[1,5-a]pyrimidin-5-yl]amino]ethyl]carbamate], in assay [2], the “AAK1:GAK pSENs Selectivity” value was “C (C: 0.076-0.15)”.

Consider `CN1C[C@@H](OC(=O)N2CCN(c3ccn4nccc4n3)CC2)CC1=O` [Compound I-97, [(3S)-1-methyl-5-oxo-pyrrolidin-3-yl]-4-pyrazolo[1,5-a]pyrimidin-5-ylpiperazine-1-carboxylate], for which, in assay [2], the “AAK1:GAK pSENs Selectivity” value is “E (E: >1.00)”.
